# Reference: US20060292243A1, “Arsenic compounds for the treatment of the arsenic-sensitive blast-cell related diseases” (priority 2005, published 2006)
# Key:
# [1] = test system: cultured human fibroblasts; test: Cell cycle effect on cultured human fibroblasts (MTT, flowcytometry, western blot, promoter luciferase); type: cell-based; conditions: 1 to 10 μM, 24 hr
# Source text: Arsenic trioxide has been approved for APL (acute promyelocytic leukemia) therapy, and though much work remains to be done on the application of arsenic trioxide and the mechanism of arsenic toxicity is not fully understood, several recent works pointed out the involvement of oxidative stress in arsenic-induced DNA damage in living cells may cause cell cycle arrest.
# Trypanosoma brucei = test: Anti-Trypanosoma test, viable cell count; type: cell-based
# Description: Arsenic trioxide (Asadin®, 10 mg/10 ml/vial) was used to check the toxicity on the Trypanosoma brucei. Viable cell count was microscopically monitored. […] This is one third of recommended dosage of Melarsoprol (an Anti-Trypanosoma drug). Moreover, cytology observation noticed specific death morphology on cell toxicity. […] Further cytology examination on the death cells will be examined.
substance,measurement,setting,value
arsenic trioxide,effect on cell cycle of fibroblasts,[1],cell cycle arrest especially in G2/M
same,killing effect on Trypanosoma brucei (viable cell count),"Trypanosoma brucei; 0.1 mg/ml/day for 3 days, over 7 days",complete killing effect
same,death morphology on cytology observation,Trypanosoma brucei; cultured Trypanosoma brucei,Cells became thread-like
same,killing dosage compared with Melarsoprol,Trypanosoma brucei; cultured Trypanosoma brucei,"comparable, if not better"
same,killing potency versus 3 doses regimen,Trypanosoma brucei; one dose regimen of 0.3 mg/ml,less killing potency at least one log difference
